Results as given in US20140018376A1, “Use of 1H-Quinazoline-2,4-Diones” (priority 2009, published 2014).

tested on: mouse; assay: Oral activity in vivo: audiogenic mouse test and/or MES test; conditions: oral administration
Procedure: The oral bioavailability was tested using the audiogenic mouse test (Audiogenic seizures, R. L. Collins; Chapter 14, pages: 347-372. In: Experimental Models of Epilepsy; By: Pupura, Penry, Tower, Woodbury, Walter, Raven Press, New York, 1972. Standard Book Number: 0-911216-26-X) and/or the MES test.

| Structure (SMILES) | In vivo orally active |
| --- | --- |
| Cn1nncc1-c1cc2c(=O)n(NS(C)(=O)=O)c(=O)[nH]c2cc1C(F)(F)F [Comparative, N-(6-(1-methyl-1H-1,2,3-triazol-5-yl)-2,4-dioxo-7-trifluoromethyl-1,4-dihydro-2H-quinazolin-3-yl]-methanesulfonamide, reference compound] | No |
| CC(O)c1cc2c(=O)n(NS(C)(=O)=O)c(=O)[nH]c2cc1C(F)(F)F (stereo not drawn) [Compound A-1, N-[6-(1-Hydroxy-ethyl)-2,4-dioxo-7-trifluoromethyl-1,4-dihydro-2H-quinazolin-3-yl]-methanesulfonamide] | Yes |
| COC(C)c1cc2c(=O)n(NS(C)(=O)=O)c(=O)[nH]c2cc1C(F)(F)F (stereo not drawn) [Compound A-2, N-[6-(1-Methoxy-ethyl)-2,4-dioxo-7-trifluoromethyl-1,4-dihydro-2H-quinazolin-3-yl]-methanesulfonamide] | Yes |
| CCC(O)c1cc2c(=O)n(NS(C)(=O)=O)c(=O)[nH]c2cc1C(F)(F)F (stereo not drawn) [Compound A-3, N-[6-(1-Hydroxy-propyl)-2,4-dioxo-7-trifluoromethyl-1,4-dihydro-2H-quinazolin-3-yl]-methanesulfonamide] | Yes |
| CC(C)OC(C)c1cc2c(=O)n(NS(C)(=O)=O)c(=O)[nH]c2cc1C(F)(F)F (stereo not drawn) [Compound A-4, N-[6-(1-Isopropoxy-ethyl)-2,4-dioxo-7-trifluoromethyl-1,4-dihydro-2H-quinazolin-3-yl]-methanesulfonamide] | Yes |
| CCOC(C)c1cc2c(=O)n(NS(C)(=O)=O)c(=O)[nH]c2cc1C(F)(F)F (stereo not drawn) [Compound A-5, N-[6-(1-Ethoxy-ethyl)-2,4-dioxo-7-trifluoromethyl-1,4-dihydro-2H-quinazolin-3-yl]-methanesulfonamide] | Yes |
| CCCOC(CC)c1cc2c(=O)n(NS(C)(=O)=O)c(=O)[nH]c2cc1C(F)(F)F (stereo not drawn) [Compound A-6, N-[2,4-Dioxo-6-(1-propoxy-propyl)-7-trifluoromethyl-1,4-dihydro-2H-quinazolin-3-yl]-methanesulfonamide] | Yes |
| CCC(OC(C)C)c1cc2c(=O)n(NS(C)(=O)=O)c(=O)[nH]c2cc1C(F)(F)F (stereo not drawn) [Compound A-7, N-[6-(1-isopropoxy-propyl)-2,4-dioxo-7-trifluoromethyl-1,4-dihydro-2H-quinazolin-3-yl]-methanesulfonamide] | Yes |
| CCOC(CC)c1cc2c(=O)n(NS(C)(=O)=O)c(=O)[nH]c2cc1C(F)(F)F (stereo not drawn) [Compound A-13, N-[6-(1-Ethoxy-propyl)-2,4-dioxo-7-trifluoromethyl-1,4-dihydro-2H-quinazolin-3-yl]-methanesulfonamide] | Yes |
| CC(OC1CCCC1)c1cc2c(=O)n(NS(C)(=O)=O)c(=O)[nH]c2cc1C(F)(F)F (stereo not drawn) [Compound A-14, N-[6-(1-Cyclopentyloxy-ethyl)-2,4-dioxo-7-trifluoromethyl-1,4-dihydro-2H-quinazolin-3-yl]-methanesulfonamide] | yes |
| CCCC(O)c1cc2c(=O)n(NS(C)(=O)=O)c(=O)[nH]c2cc1C(F)(F)F (stereo not drawn) [Compound A-15, N-[6-(1-Hydroxy-butyl)-2,4-dioxo-7-trifluoromethyl-1,4-dihydro-2H-quinazolin-3-yl]-methanesulfonamide] | Yes |
| COCCC(O)c1cc2c(=O)n(NS(C)(=O)=O)c(=O)[nH]c2cc1C(F)(F)F (stereo not drawn) [Compound A-18, N-[6-(1-Hydroxy-3-methoxy-propyl)-2,4-dioxo-7-trifluoromethyl-1,4-dihydro-2H-quinazolin-3-yl]-methanesulfonamide] | Yes |
| CS(=O)(=O)Nn1c(=O)[nH]c2cc(C(F)(F)F)c(C3CCCO3)cc2c1=O (stereo not drawn) [Compound B-2, N-[2,4-Dioxo-6-(tetrahydro-furan-2-yl)-7-trifluoromethyl-1,4-dihydro-2H-quinazolin-3-yl]-methanesulfonamide] | Yes |
| CS(=O)(=O)Nn1c(=O)[nH]c2cc(C(F)(F)F)c(C3CCOC3)cc2c1=O (stereo not drawn) [Compound B-3, N-[2,4-Dioxo-6-(tetrahydro-furan-3-yl)-7-trifluoromethyl-1,4-dihydro-2H-quinazolin-3-yl]-methanesulfonamide] | Yes |
| COCCn1nccc1-c1cc2c(=O)n(NS(C)(=O)=O)c(=O)[nH]c2cc1C(C)C [Compound C-1, N-{7-Isopropyl-6-[2-(2-methoxy-ethyl)-2H-pyrazol-3-yl]-2,4-dioxo-1,4-dihydro-2H-quinazolin-3-yl}-methanesulfonamide] | yes |
| CC(C)n1nccc1-c1cc2c(=O)n(NS(C)(=O)=O)c(=O)[nH]c2cc1C(F)(F)F [Compound C-2, N-[6-(2-Isopropyl-2H-pyrazol-3-yl)-2,4-dioxo-7-trifluoromethyl-1,4-dihydro-2H-quinazolin-3-yl]-methanesulfonamide] | Yes |
| CC(C)n1nccc1-c1cc2c(=O)n(NS(C)(=O)=O)c(=O)[nH]c2cc1CF [Compound C-3, N-[7-Fluoromethyl-6-(2-isopropyl-2H-pyrazol-3-yl)-2,4-dioxo-1,4-dihydro-2H-quinazolin-3-yl]-methanesulfonamide] | Yes |
| COCCn1nccc1-c1cc2c(=O)n(NS(C)(=O)=O)c(=O)[nH]c2cc1C(F)(F)F [Compound C-4, N-{6-[2-(2-Methoxy-ethyl)-2H-pyrazol-3-yl]-2,4-dioxo-7-trifluoromethyl-1,4-dihydro-2H-quinazolin-3-yl}-methanesulfonamide] | Yes |
| CS(=O)(=O)Nn1c(=O)[nH]c2cc(C(F)(F)F)c(-c3ccnn3O)cc2c1=O [Compound C-5, N-[6-(2-Hydroxy-2H-pyrazol-3-yl)-2,4-dioxo-7-trifluoromethyl-1,4-dihydro-2H-quinazolin-3-yl]-methanesulfonamide] | Yes |
| CCc1cc2[nH]c(=O)n(NS(C)(=O)=O)c(=O)c2cc1-c1ccnn1C(C)C [Compound C-6, N-[7-Ethyl-6-(2-isopropyl-2H-pyrazol-3-yl)-2,4-dioxo-1,4-dihydro-2H-quinazolin-3-yl]-methanesulfonamide] | Yes |
| CC(C)c1cc2[nH]c(=O)n(NS(C)(=O)=O)c(=O)c2cc1-c1ccnn1C [Compound C-7, N-[7-Isopropyl-6-(2-methyl-2H-pyrazol-3-yl)-2,4-dioxo-1,4-dihydro-2H-quinazolin-3-yl]-methanesulfonamide] | Yes |
| CC(C)c1cc2[nH]c(=O)n(NS(C)(=O)=O)c(=O)c2cc1-c1ccnn1C(C)C [Compound C-8, N-[7-Isopropyl-6-(2-isopropyl-2H-pyrazol-3-yl)-2,4-dioxo-1,4-dihydro-2H-quinazolin-3-yl]-methanesulfonamide] | yes |
| Cn1nccc1-c1cc2c(=O)n(NS(C)(=O)=O)c(=O)[nH]c2cc1C(F)F [Compound C-9, N-[7-Difluoromethyl-6-(2-methyl-2H-pyrazol-3-yl)-2,4-dioxo-1,4-dihydro-2H-quinazolin-3-yl]-methanesulfonamide] | Yes |
| CC(C)n1nccc1-c1cc2c(=O)n(NS(C)(=O)=O)c(=O)[nH]c2cc1C(F)F [Compound C-10, N-[7-Difluoromethyl-6-(2-isopropyl-2H-pyrazol-3-yl)-2,4-dioxo-1,4-dihydro-2H-quinazolin-3-yl]-methanesulfonamide] | Yes |
| CCc1cc2[nH]c(=O)n(NS(C)(=O)=O)c(=O)c2cc1-c1ccnn1C [Compound C-11, N-[7-Ethyl-6-(2-methyl-2H-pyrazol-3-yl)-2,4-dioxo-1,4-dihydro-2H-quinazolin-3-yl]-methanesulfonamide] | Yes |
| CCc1cc2[nH]c(=O)n(NS(C)(=O)=O)c(=O)c2cc1-c1ccnn1CC [Compound C-12, N-[7-Ethyl-6-(2-ethyl-2H-pyrazol-3-yl)-2,4-dioxo-1,4-dihydro-2H-quinazolin-3-yl]-methanesulfonamide] | Yes |
| Cn1nccc1-c1cc2c(=O)n(NS(C)(=O)=O)c(=O)[nH]c2cc1C(C)(F)F [Compound C-15, N-[7-(1,1-difluoro-ethyl)-6-(2-methyl-2H-pyrazol-3-yl)-2,4-dioxo-1,4-dihydro-2H-quinazolin-3-yl]-methanesulfonamide] | Yes |
| CC(C)n1nccc1-c1cc2c(=O)n(NS(C)(=O)=O)c(=O)[nH]c2cc1C(C)(F)F [Compound C-16, N-[7-(1,1-difluoro-ethyl)-6-(2-isopropyl-2H-pyrazol-3-yl)-2,4-dioxo-1,4-dihydro-2H-quinazolin-3-yl]-methanesulfonamide] | Yes |
| CC(F)c1cc2[nH]c(=O)n(NS(C)(=O)=O)c(=O)c2cc1-c1ccnn1C(C)C (stereo not drawn) [Compound C-17, N-[7-(1-fluoro-ethyl)-6-(2-isopropyl-2H-pyrazol-3-yl)-2,4-dioxo-1,4-dihydro-2H-quinazolin-3-yl]-methanesulfonamide] | Yes |
| Cn1nccc1-c1cc2c(=O)n(NS(C)(=O)=O)c(=O)[nH]c2cc1C(F)(F)F [Compound C-18, N-[6-(2-Methyl-2H-pyrazol-3-yl)-2,4-dioxo-7-trifluoromethyl-1,4-dihydro-2H-quinazolin-3-yl]-methanesulfonamide] | Yes |
